We go through 13 compounds from patent US20240116985A1, “STAPLED PEPTIDES AND METHODS THEREOF” (priority 2020, published 2024).

The target of experiment [1] is T1, full-length beta-Catenin (Uniprot ID P35222) (Homo sapiens, UniProt P35222).
T1 construct: 10 nM full-length beta-Catenin (Uniprot ID P35222)
T1 sequence (P35222 1-781): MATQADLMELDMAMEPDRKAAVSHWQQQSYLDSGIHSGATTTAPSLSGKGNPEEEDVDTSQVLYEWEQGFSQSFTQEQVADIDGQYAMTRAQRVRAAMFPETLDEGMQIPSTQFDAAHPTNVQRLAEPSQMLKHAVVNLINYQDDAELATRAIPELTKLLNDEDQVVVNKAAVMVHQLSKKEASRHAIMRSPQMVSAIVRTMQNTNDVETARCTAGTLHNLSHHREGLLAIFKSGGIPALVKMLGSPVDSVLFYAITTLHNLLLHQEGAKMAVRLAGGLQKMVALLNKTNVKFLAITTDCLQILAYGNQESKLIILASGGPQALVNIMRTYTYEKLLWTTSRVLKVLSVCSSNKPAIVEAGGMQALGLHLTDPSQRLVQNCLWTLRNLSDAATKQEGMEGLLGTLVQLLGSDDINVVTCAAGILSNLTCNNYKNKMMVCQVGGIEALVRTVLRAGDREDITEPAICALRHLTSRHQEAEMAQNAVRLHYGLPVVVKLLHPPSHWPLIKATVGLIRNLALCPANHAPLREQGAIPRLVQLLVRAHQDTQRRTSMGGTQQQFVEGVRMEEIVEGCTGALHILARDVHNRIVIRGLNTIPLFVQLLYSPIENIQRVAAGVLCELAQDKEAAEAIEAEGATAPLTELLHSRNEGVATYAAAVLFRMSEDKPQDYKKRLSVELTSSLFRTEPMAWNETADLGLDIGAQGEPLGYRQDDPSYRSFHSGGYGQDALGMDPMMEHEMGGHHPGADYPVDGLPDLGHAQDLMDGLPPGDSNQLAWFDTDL
Description: Fluorescence polarization IC50 (beta-catenin / 5FAM-TCF4 10-53 competition). The format is binding. The conditions noted are these: fluorescence polarization; read-out: beta-Catenin FP IC50. For orientation: In fluorescence polarisation assays a small probe gives low polarisation when free and higher when bound to something large.

For experiment [2], the target named is T2, beta-catenin/TCF4 engagement (Homo sapiens, UniProt P35222).
T2 construct: expressed in transfected cells; host or cells: HEK293
T2 sequence (P35222 1-781): T1 sequence (P35222 1-781)
Description: Nano-BRET target engagement assay (B-cat-Halo & TCF4-Luc in HEK293 cells). The format is cell-based. The conditions noted are these: read-out: NanoBRET Abs IC50. On the technique in general: Bioluminescence resonance energy transfer reports proximity on the nanometre scale.

As usually defined, the IC50 is the point on the concentration scale where inhibition reaches its midpoint. As to `CC(=O)N1CCC[C@]12CC=CCCCC1(CCCC=CCCCOC(=O)N3CC[C@@](C(=O)N[C@@H](Cc4ccsc4)C(=O)N[C@@H](Cc4csc5ccccc45)C(=O)N[C@H](CCC(N)=O)C(N)=O)(C3)NC(=O)[C@H](CC(C)C)NC(=O)[C@H](Cc3ccccc3)NC(=O)[C@H](C)NC(=O)[C@H](C)NC(=O)[C@H](Cc3cccc(C(=O)O)c3)NC(=O)[C@H](CC(=O)O)NC1=O)NC(=O)[C@H](CC(C)(C)C)NC(=O)[C@H](CC(=O)O)NC2=O` (stereo partly drawn) [I-2088, Ac-PL3-Asp-Npg-B5-Asp-3COOHF-Ala-Ala-Phe-Leu-PyrS2-3Thi-BztA-dGln-NH2], the figures for the IC50 in experiment [1] and in experiment [2] were 10 nM and 4400 nM, respectively.
On the same counts, the results for `CC(=O)N1CCC[C@]12CC=CCCCC1(CCCC=CCCCOC(=O)N3CC[C@@](C(=O)N[C@@H](Cc4ccsc4)C(=O)N[C@@H](Cc4csc5ccccc45)C(=O)N[C@H](C)C(N)=O)(C3)NC(=O)[C@H](CC(C)C)NC(=O)[C@H](Cc3ccccc3)NC(=O)[C@H](C)NC(=O)[C@H](C)NC(=O)[C@H](Cc3cccc(C(=O)O)c3)NC(=O)[C@H](CC(=O)O)NC1=O)NC(=O)[C@H](CC(C)(C)C)NC(=O)[C@H](CC(=O)O)NC2=O` (stereo partly drawn) [I-2090, Ac-PL3-Asp-Npg-B5-Asp-3COOHF-Ala-Ala-Phe-Leu-PyrS2-3Thi-BztA-dAla-NH2] are 11 nM and 5900 nM.
With `CC(=O)N1CCC[C@]12CC=CCCCC1(CCCC=CCCCOC(=O)N3CC[C@@](C(=O)N[C@@H](Cc4ccccc4C(F)(F)F)C(=O)N[C@@H](Cc4csc5ccccc45)C(=O)N[C@H](C)C(N)=O)(C3)NC(=O)[C@H](CC(C)C)NC(=O)[C@H](Cc3ccccc3)NC(=O)[C@H](C)NC(=O)[C@H](C)NC(=O)[C@H](Cc3cccc(C(=O)O)c3)NC(=O)[C@H](CC(=O)O)NC1=O)NC(=O)[C@H](CC(C)(C)C)NC(=O)[C@H](CC(=O)O)NC2=O` (stereo partly drawn) [I-2091, Ac-PL3-Asp-Npg-B5-Asp-3COOHF-Ala-Ala-Phe-Leu-PyrS2-2F3MeF-BztA-dAla-NH2], the IC50 in experiment [1] came to 49 nM; in experiment [2] it was 6200 nM.
On to `CC(=O)N1CCC[C@]12CC=CCCCC1(CCCC=CCCCOC(=O)N3CC[C@@](C(=O)N[C@@H](Cc4ccsc4)C(=O)N[C@@H](Cc4csc5ccccc45)C(=O)N[C@H](CCC(N)=O)C(N)=O)(C3)NC(=O)[C@H](Cc3ccccc3)NC(=O)[C@H](Cc3ccccc3)NC(=O)[C@H](C)NC(=O)[C@H](C)NC(=O)[C@H](Cc3cccc(C(=O)O)c3)NC(=O)[C@H](CC(=O)O)NC1=O)NC(=O)[C@H](CC(C)(C)C)NC(=O)[C@H](CC(=O)O)NC2=O` (stereo partly drawn) [I-2092, Ac-PL3-Asp-Npg-B5-Asp-3COOHF-Ala-Ala-Phe-Phe-PyrS2-3Thi-BztA-dGln-NH2], for which the figures for the IC50 in experiment [1] and in experiment [2] were 15 nM and 4400 nM, respectively.
For `CC(=O)N1CCC[C@]12CC=CCCCC1(CCCC=CCCCOC(=O)N3CC[C@@](C(=O)N[C@@H](Cc4ccccc4C(F)(F)F)C(=O)N[C@@H](Cc4csc5ccccc45)C(=O)N[C@H](CCC(N)=O)C(N)=O)(C3)NC(=O)[C@H](Cc3ccccc3)NC(=O)[C@H](Cc3ccccc3)NC(=O)[C@H](C)NC(=O)[C@H](C)NC(=O)[C@H](Cc3cccc(C(=O)O)c3)NC(=O)[C@H](CC(=O)O)NC1=O)NC(=O)[C@H](CC(C)(C)C)NC(=O)[C@H](CC(=O)O)NC2=O` (stereo partly drawn) [I-2093, Ac-PL3-Asp-Npg-B5-Asp-3COOHF-Ala-Ala-Phe-Phe-PyrS2-2F3MeF-BztA-dGln-NH2], the 50% inhibitory concentration (IC50) in experiment [1] stood at 43 nM; in experiment [2], 5000 nM.
For `CC(=O)N1CCC[C@]12CC=CCCCC1(CCCC=CCCCOC(=O)N3CC[C@@](C(=O)N[C@@H](Cc4ccsc4)C(=O)N[C@@H](Cc4csc5ccccc45)C(=O)N[C@H](C)C(N)=O)(C3)NC(=O)[C@H](Cc3ccccc3)NC(=O)[C@H](Cc3ccccc3)NC(=O)[C@H](C)NC(=O)[C@H](C)NC(=O)[C@H](Cc3cccc(C(=O)O)c3)NC(=O)[C@H](CC(=O)O)NC1=O)NC(=O)[C@H](CC(C)(C)C)NC(=O)[C@H](CC(=O)O)NC2=O` (stereo partly drawn) [I-2094, Ac-PL3-Asp-Npg-B5-Asp-3COOHF-Ala-Ala-Phe-Phe-PyrS2-3Thi-BztA-dAla-NH2], the IC50 in experiment [1] worked out at 28 nM; in experiment [2], 9700 nM.
Take `CC(=O)N1CCC[C@]12CC=CCCCC1(CCCC=CCCCOC(=O)N3CC[C@@](C(=O)N[C@@H](Cc4ccccc4C(F)(F)F)C(=O)N[C@@H](Cc4csc5ccccc45)C(=O)N[C@H](C)C(N)=O)(C3)NC(=O)[C@H](Cc3ccccc3)NC(=O)[C@H](Cc3ccccc3)NC(=O)[C@H](C)NC(=O)[C@H](C)NC(=O)[C@H](Cc3cccc(C(=O)O)c3)NC(=O)[C@H](CC(=O)O)NC1=O)NC(=O)[C@H](CC(C)(C)C)NC(=O)[C@H](CC(=O)O)NC2=O` (stereo partly drawn) [I-2095, Ac-PL3-Asp-Npg-B5-Asp-3COOHF-Ala-Ala-Phe-Phe-PyrS2-2F3MeF-BztA-dAla-NH2]: the IC50 was found to be 78 nM in experiment [1] and 10500 nM in experiment [2].
As for `CC(=O)N1CCC[C@]12CC=CCCCC1(CCCC=CCCCOC(=O)N3CC[C@@](C(=O)N[C@@H](Cc4ccsc4)C(=O)N[C@@H](Cc4csc5ccccc45)C(=O)N[C@@H](C)C(N)=O)(C3)NC(=O)[C@H](CC(C)C)NC(=O)[C@H](Cc3ccccc3)NC(=O)[C@@H](C)NC(=O)[C@H](C)NC(=O)[C@H](Cc3cccc(C(=O)O)c3)NC(=O)[C@H](CC(=O)O)NC1=O)NC(=O)[C@H](CC(C)(C)C)NC(=O)[C@H](CC(=O)O)NC2=O` (stereo partly drawn) [I-2096, Ac-PL3-Asp-Npg-B5-Asp-3COOHF-Ala-dAla-Phe-Leu-PyrS2-3Thi-BztA-Ala-NH2], the IC50 in experiment [1] is 79 nM; in experiment [2], more than 20000 nM.
Consider `CC(=O)N1CCC[C@]12CC=CCCCC1(CCCC=CCCCOC(=O)N3CC[C@@](C(=O)N[C@@H](Cc4ccsc4)C(=O)N[C@@H](Cc4csc5ccccc45)C(=O)N[C@@H](C)C(N)=O)(C3)NC(=O)[C@H](CC(C)C)NC(=O)[C@H](Cc3ccccc3)NC(=O)[C@@H](C)NC(=O)[C@H](C)NC(=O)[C@H](Cc3cccc(C(=O)O)c3)NC(=O)[C@H](CC(=O)O)NC1=O)NC(=O)[C@H](CC(C)(C)C)NC(=O)[C@H](CC(=O)O)NC2=O` (stereo partly drawn) [I-2097, Ac-PL3-Asp-Npg-B5-Asp-3COOHF-Ala-dAla-Phe-Leu-PyrS2-3Thi-BztA-Ala-NH2], for which the results for the IC50 in experiment [1] and in experiment [2] were 23 nM and 22300 nM, respectively.
On to `CC(=O)N1CCC[C@]12CC=CCCCC1(CCCC=CCCCOC(=O)N3CC[C@@](C(=O)N[C@@H](Cc4ccccc4C(F)(F)F)C(=O)N[C@@H](Cc4csc5ccccc45)C(=O)N[C@@H](C)C(N)=O)(C3)NC(=O)[C@H](CC(C)C)NC(=O)[C@H](Cc3ccccc3)NC(=O)[C@@H](C)NC(=O)[C@H](C)NC(=O)[C@H](Cc3cccc(C(=O)O)c3)NC(=O)[C@H](CC(=O)O)NC1=O)NC(=O)[C@H](CC(C)(C)C)NC(=O)[C@H](CC(=O)O)NC2=O` (stereo partly drawn) [I-2098, Ac-PL3-Asp-Npg-B5-Asp-3COOHF-Ala-dAla-Phe-Leu-PyrS2-2F3MeF-BztA-Ala-NH2], for which the figures for the IC50 in experiment [1] and in experiment [2] were 260 nM and more than 20000 nM, respectively.
With `CC(=O)N1CCC[C@]12CC=CCCCC1(CCCC=CCCCOC(=O)N3CC[C@@](C(=O)N[C@@H](Cc4ccsc4)C(=O)N[C@@H](Cc4csc5ccccc45)C(=O)N[C@H](C)C(N)=O)(C3)NC(=O)[C@H](CC(C)C)NC(=O)[C@H](Cc3ccccc3)NC(=O)[C@@H](C)NC(=O)[C@H](C)NC(=O)[C@H](Cc3cccc(C(=O)O)c3)NC(=O)[C@H](CC(=O)O)NC1=O)NC(=O)[C@H](CC(C)(C)C)NC(=O)[C@H](CC(=O)O)NC2=O` (stereo partly drawn) [I-2100, Ac-PL3-Asp-Npg-B5-Asp-3COOHF-Ala-dAla-Phe-Leu-PyrS2-3Thi-BztA-dAla-NH2], the half-maximal inhibitory concentration (IC50) was 86 nM in experiment [1] and more than 20000 nM in experiment [2].
On the same counts, the results for `CC(=O)N1CCC[C@]12CC=CCCCC1(CCCC=CCCCOC(=O)N3CC[C@@](C(=O)N[C@@H](Cc4ccccc4)C(=O)N[C@@H](Cc4csc5ccccc45)C(=O)N[C@@H](CCO)C(N)=O)(C3)NC(=O)[C@H](CCCCNC(C)C)NC(=O)[C@H](Cc3ccccc3)NC(=O)[C@H](C)NC(=O)[C@H](CCCCNC(C)C)NC(=O)[C@H](CCC(N)=O)NC(=O)[C@H](CC(=O)O)NC1=O)NC(=O)[C@H](CC1CCCCC1)NC(=O)[C@H](CC(N)=O)NC2=O` (stereo partly drawn) [I-2102, Ac-PL3-Asn-Cha-B5-Asp-Gln-iPrLys-Ala-Phe-iPrLys-PyrS2-Phe-BztA-Hse-NH2] are 273 nM and more than 20000 nM.
For the compound `CC(=O)N1CCC[C@]12CC=CCCCC1(CCCC=CCCCOC(=O)N3CC[C@@](C(=O)N[C@@H](Cc4ccccc4)C(=O)N[C@@H](Cc4csc5ccccc45)C(=O)N[C@@H](Cc4c[nH]cn4)C(N)=O)(C3)NC(=O)[C@H](CC(N)=O)NC(=O)[C@H](Cc3ccccc3)NC(=O)[C@H](C)NC(=O)[C@H](CCCCNC(C)C)NC(=O)[C@H](CCC(N)=O)NC(=O)[C@H](CC(=O)O)NC1=O)NC(=O)[C@H](CC1CCCCC1)NC(=O)[C@H](CC(N)=O)NC2=O` (stereo partly drawn) [I-2109, Ac-PL3-Asn-Cha-B5-Asp-Gln-iPrLys-Ala-Phe-Asn-PyrS2-Phe-BztA-His-NH2], the IC50 in experiment [1] was 136 nM; in experiment [2], more than 20000 nM.
